From US20210380606A1, “5-AZAINDAZOLE DERIVATIVES AS ADENOSINE RECEPTOR ANTAGONISTS” (Merck Patent GmbH, priority 2018, published 2021)
pIC50: −log10 of the molar value. Like-named read-outs stand apart in the source and are kept apart here.

Key:
human A2B receptors = biological target: T1, human A2B receptors (Homo sapiens, UniProt P29275); experiment: Functional human A2B receptor activity, recombinant HEK293 cells, cAMP (HTRF); assay type: cell-based
T1 construct: expressed in transfected cells; host or cells: HEK293
T1 sequence (P29275 1-332): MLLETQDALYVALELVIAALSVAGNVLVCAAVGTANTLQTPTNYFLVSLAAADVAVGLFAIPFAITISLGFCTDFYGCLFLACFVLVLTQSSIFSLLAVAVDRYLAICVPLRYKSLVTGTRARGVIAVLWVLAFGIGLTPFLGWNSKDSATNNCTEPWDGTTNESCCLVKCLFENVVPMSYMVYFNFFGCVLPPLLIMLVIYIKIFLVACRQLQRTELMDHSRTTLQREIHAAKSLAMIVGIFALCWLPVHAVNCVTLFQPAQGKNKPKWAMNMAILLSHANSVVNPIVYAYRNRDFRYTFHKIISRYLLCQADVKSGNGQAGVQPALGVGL
How it was run: (§1)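 Receptor function was assessed by measuring cAMP, the second messenger for adenosine receptors. Cells were incubated for 15 min, after which HTRF reagents were added and cellular cAMP levels were read.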

human A2A receptors = biological target: T2, human A2A receptors (Homo sapiens, UniProt P29274); experiment: Functional human A2A receptor activity, recombinant HEK293 cells, cAMP (HTRF); assay type: cell-based
T2 construct: expressed in transfected cells; host or cells: HEK293
How it was run: as §1

[1] = read-out: Functional A2B receptor activity HEK293, cAMP IC50
[2] = read-out: Functional A2A receptor activity, HEK293, cAMP, IC50

T2 sequence (P29274 whole entry): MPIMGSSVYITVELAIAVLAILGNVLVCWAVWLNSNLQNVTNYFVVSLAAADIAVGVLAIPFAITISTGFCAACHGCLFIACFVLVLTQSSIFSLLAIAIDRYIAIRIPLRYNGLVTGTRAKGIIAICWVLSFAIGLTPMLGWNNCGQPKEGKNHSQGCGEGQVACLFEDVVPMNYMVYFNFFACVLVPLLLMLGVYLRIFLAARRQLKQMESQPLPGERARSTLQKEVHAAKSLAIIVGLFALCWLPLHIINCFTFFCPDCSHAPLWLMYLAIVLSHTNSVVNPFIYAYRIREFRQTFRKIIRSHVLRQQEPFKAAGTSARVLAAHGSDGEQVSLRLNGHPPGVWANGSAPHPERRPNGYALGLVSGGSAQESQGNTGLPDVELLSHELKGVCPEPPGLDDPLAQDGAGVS

| SMILES | pIC50 (human A2B receptors; read-out: A2B (Category)) | pIC50 (human A2A receptors; read-out: A2A (Category)) | pIC50 (human A2B receptors; [1]) | pIC50 (human A2A receptors; [2]) |
| --- | --- | --- | --- | --- |
| O=C(c1cc2c(cn1)c(-c1coc3ccccc13)nn2CCF)N1[C@@H]2CC[C@H]1C[C@@H](O)C2 [Compound 221, [3-Benzofuran-3-yl-1-(2-fluoro-ethyl)-1H-pyrazolo[4,3-c]pyridin-6-yl]-(3-endo-hydroxy-8-aza-bicyclo[3.2.1]oct-8-yl)-methanone] | > 7.00 | > 7.00 |  |  |
| CCCn1nc(-c2coc3ccccc23)c2cnc(C(=O)N3[C@@H]4CC[C@H]3C[C@@H](O)C4)cc21 [Compound 222, (3-Benzofuran-3-yl-1-propyl-1H-pyrazolo[4,3-c]pyridin-6-yl)-(3-endo-hydroxy-8-aza-bicyclo[3.2.1]oct-8-yl)-methanone] | > 6.00 | > 7.00 |  |  |
| O=C(c1cc2c(cn1)c(-c1coc3ccccc13)nn2CC(F)(F)F)N1CCC(F)(F)CC1 [Compound 225, [3-(benzofuran-3-yl)-1-(2,2,2-trifluoroethyl)pyrazolo[4,3-c]pyridin-6-yl]-(4,4-difluoro-1-piperidyl)methanone] | > 6.00 | > 7.00 |  |  |
| O=C(c1cc2c(cn1)c(-c1coc3ccccc13)nn2CC(F)(F)F)N1CCCC(O)CC1 (stereo not drawn) [Compound 228, [3-(benzofuran-3-yl)-1-(2,2,2-trifluoroethyl)pyrazolo[4,3-c]pyridin-6-yl]-(4-hydroxyazepan-1-yl)methanone] | > 7.00 | > 7.00 |  |  |
| [2H]C1([2H])COCCN(C(=O)c2cc3c(cn2)c(-c2coc4ccccc24)nn3CC(F)(F)F)C1 [Compound 229, [3-(benzofuran-3-yl)-1-(2,2,2-trifluoroethyl)pyrazolo[4,3-c]pyridin-6-yl]-(6,6-dideuterio-1,4-oxazepan-4-yl)methanone] | > 7.00 | > 7.00 |  |  |
| O=C(c1cc2c(cn1)c(-c1coc3ccccc13)nn2CC(F)(F)F)N1CCOCC(F)C1 (stereo not drawn) [Compound 230, [3-(benzofuran-3-yl)-1-(2,2,2-trifluoroethyl)pyrazolo[4,3-c]pyridin-6-yl]-[6-fluoro-1,4-oxazepan-4-yl]methanone] | > 7.00 | > 7.00 |  |  |
| NC(=O)c1ccc2occ(-c3nn(CC(F)(F)F)c4cc(C(=O)N5CCCOCC5)ncc34)c2c1 [Compound 237, 3-[6-(1,4-oxazepane-4-carbonyl)-1-(2,2,2-trifluoroethyl)pyrazolo[4,3-c]pyridin-3-yl]benzofuran-5-carboxamide] | > 6.00 | > 7.00 |  |  |
| CCCn1nc(-c2cnc3ccc(C(N)=O)cn23)c2cnc(C(=O)N3CCCCCC3)cc21 [Compound 245, 3-[6-(Azepane-1-carbonyl)-1-propyl-1H-pyrazolo[4,3-c]pyridin-3-yl]-imidazo[1,2-a]pyridine-6-carboxylic acid amide] | > 6.00 | > 7.00 |  |  |
| NC(=O)c1ccc2ncc(-c3nn(CC(F)(F)F)c4cc(C(=O)N5CCCOCC5)ncc34)n2c1 [Compound 246, 3-[6-(1,4-Oxazepane-4-carbonyl)-1-(2,2,2-trifluoro-ethyl)-1H-pyrazolo[4,3-c]pyridin-3-yl]-imidazo[1,2-a]pyridine-6-carboxylic acid amide] | > 6.00 | > 7.00 |  |  |
| O=C(c1cc2c(cn1)c(-c1cnn3ccncc13)nn2CC(F)(F)F)N1CCCCCC1 [Compound 248, Azepan-1-yl-[3-pyrazolo[1,5-a]pyrazin-3-yl-1-(2,2,2-trifluoro-ethyl)-1H-pyrazolo[4,3-c]pyridin-6-yl]-methanone] | > 6.00 | > 7.00 |  |  |
| O=C(c1cc2c(cn1)c(-c1cnn3ccncc13)nn2CC(F)(F)F)N1CCCOCC1 [Compound 249, 1,4-Oxazepan-4-yl-[3-pyrazolo[1,5-a]pyrazin-3-yl-1-(2,2,2-trifluoro-ethyl)-1H-pyrazolo[4,3-c]pyridin-6-yl]-methanone] | > 6.00 | > 7.00 |  |  |
| [2H]C1([2H])COCCN(C(=O)c2cc3c(cn2)c(-c2c[nH]c4ccccc24)nn3CC(F)(F)F)C1 [Example 242, (6,6-dideuterio-1,4-oxazepan-4-yl)-[3-(1H-indol-3-yl)-1-(2,2,2-trifluoroethyl)pyrazolo[4,3-c]pyridin-6-yl]methanone] | > 6.00 | > 7.00 |  |  |

Second part, the compound after the results:

| pIC50 (human A2B receptors; read-out: A2B (Category)) | pIC50 (human A2A receptors; read-out: A2A (Category)) | pIC50 (human A2B receptors; [1]) | pIC50 (human A2A receptors; [2]) | SMILES |
| --- | --- | --- | --- | --- |
| > 6.00 | > 7.00 |  |  | O=C(c1cc2c(cn1)c(-c1coc3ccccc13)nn2CC(F)(F)F)N1CCCC(F)(F)C1 [Compound 226, [3-(benzofuran-3-yl)-1-(2,2,2-trifluoroethyl)pyrazolo[4,3-c]pyridin-6-yl]-(3,3-difluoro-1-piperidyl)methanone] |
| > 7.00 | > 7.00 |  |  | O=C(c1cc2c(cn1)c(-c1coc3ccccc13)nn2CC(F)(F)F)N1CCCC(O)C1 (stereo not drawn) [Compound 227, [3-Benzofuran-3-yl-1-(2,2,2-trifluoro-ethyl)-1H-pyrazolo[4,3-c]pyridin-6-yl]-(3-hydroxy-piperidin-1-yl)-methanone] |
| > 6.00 | > 7.00 |  |  | O=C(c1cc2c(cn1)c(-c1coc3ccccc13)nn2CC(F)(F)F)N(C1CC1)C1CC1 [Compound 232, 3-(benzofuran-3-yl)-N,N-di(cyclopropyl)-1-(2,2,2-trifluoroethyl)-pyrazolo[4,3-c]pyridine-6-carboxamide] |
| > 6.00 | > 7.00 |  |  | CC(C)N(C(=O)c1cc2c(cn1)c(-c1coc3ccccc13)nn2CC(F)(F)F)C(C)C [Compound 233, 3-(benzofuran-3-yl)-N,N-diisopropyl-1-(2,2,2-trifluoroethyl)pyrazolo[4,3-c]pyridine-6-carboxamide] |
| > 6.00 | > 7.00 |  |  | CCN(C(=O)c1cc2c(cn1)c(-c1coc3ccccc13)nn2CC(F)(F)F)C(C)C [Compound 234, 3-(benzofuran-3-yl)-N-ethyl-N-isopropyl-1-(2,2,2-trifluoroethyl)-pyrazolo[4,3-c]pyridine-6-carboxamide] |
| > 6.00 | > 7.00 |  |  | CCN(C(=O)c1cc2c(cn1)c(-c1coc3ccccc13)nn2CC(F)(F)F)C1CCCCC1 [Compound 235, 3-(benzofuran-3-yl)-N-cyclohexyl-N-ethyl-1-(2,2,2-trifluoroethyl)pyrazolo[4,3-c]pyridine-6-carboxamide] |
| > 6.00 | > 7.00 |  |  | O=C(c1cc2c(cn1)c(-c1c[nH]c3ccccc13)nn2CC(F)(F)F)N1CC2CCC(C1)O2 [Compound 243, [3-(1H-indol-3-yl)-1-(2,2,2-trifluoroethyl)pyrazolo[4,3-c]pyridin-6-yl]-(8-oxa-3-azabicyclo[3.2.1]octan-3-yl)methanone] |
| > 6.00 | > 7.00 |  |  | Cc1cc(C(N)=O)cn2c(-c3nn(CC(F)(F)F)c4cc(C(=O)N5CCCCCC5)ncc34)cnc12 [Compound 244, 3-[6-(Azepane-1-carbonyl)-1-(2,2,2-trifluoro-ethyl)-1H-pyrazolo[4,3-c]pyridin-3-yl]-8-methyl-imidazo[1,2-a]pyridine-6-carboxylic acid amide] |
| > 6.00 | > 7.00 |  |  | NC(=O)c1ccc2ncc(-c3nn(CC(F)(F)F)c4cc(C(=O)N5CC6CCC(C5)O6)ncc34)n2c1 [Compound 247, 3-[6-(8-Oxa-3-aza-bicyclo[3.2.1]octane-3-carbonyl)-1-(2,2,2-trifluoro-ethyl)-1H-pyrazolo[4,3-c]pyridin-3-yl]-imidazo[1,2-a]pyridine-6-carboxylic acid amide] |
| > 6.00 | > 7.00 |  |  | CS(=O)(=O)Cn1nc(-c2cnn3ccncc23)c2cnc(C(=O)N3CCCOCC3)cc21 [Compound 250, (1-Methanesulfonylmethyl-3-pyrazolo[1,5-a]pyrazin-3-yl-1H-pyrazolo[4,3-c]pyridin-6-yl)-(1,4-oxazepan-4-yl)methanone] |
| > 6.00 | > 7.00 |  |  | O=C(c1cc2c(cn1)c(-n1cnc3ccccc31)nn2CC(F)(F)F)N1CCCOCC1 [Compound 251, [3-(benzimidazol-1-yl)-1-(2,2,2-trifluoroethyl)pyrazolo[4,3-c]pyridin-6-yl]-(1,4-oxazepan-4-yl)methanone] |
| > 7.00 | > 7.00 |  |  | O=C(c1cc2c(cn1)c(-n1cnc3ccc(F)cc31)nn2CC(F)(F)F)N1CCCOCC1 [Compound 252, [3-(6-fluorobenzimidazol-1-yl)-1-(2,2,2-trifluoroethyl)pyrazolo[4,3-c]pyridin-6-yl]-(1,4-oxazepan-4-yl)methanone] |
|  |  | > 6.00 | > 7.00 | O=C(c1ccc2c(-c3cnc4ccc(F)cn34)nn(CC(F)(F)F)c2c1)N1CCCCCC1 [analogue to No. 44, reference compound] |
|  |  | < 6.00 | > 7.00 | O=C(c1ccc2c(-c3cnc4ccc(Cl)cn34)nn(CC(F)(F)F)c2c1)N1CCCCCC1 [analogue to No. 48, reference compound] |
|  |  | > 6.00 | > 7.00 | O=C(c1ccc2c(-c3cnc4c(F)cc(F)cn34)nn(CC(F)(F)F)c2c1)N1CCCCCC1 [analogue to No. 60, reference compound] |
